# Patent US20240342120A1, “MULTIPLE MYELOMA TREATMENT” (Vanda Pharmaceuticals Inc., priority 2013, published 2024)
# Experiments:
# Format in all cases: cell-based
# CDC2 = test: Affymetrix gene expression, CDC2, cells treated 24 hours; details: probe 203214_x_at; human retinal pigment epithelial cell line; 24 hours vs vehicle; Instance ID 10005533
# Procedure: (§1) A human retinal pigment epithelial cell line was treated with trichostatin or vehicle for 24 hours and gene expression for 22,238 probe sets covering 12,490 genes was generated using an Affymetrix instrument.
# TOP2A = test: Affymetrix gene expression, TOP2A, cells treated 24 hours; details: human retinal pigment epithelial cell line, 24 hours vs vehicle
# Procedure: as §1
# [1] = system: CCNB1, AURKB, CDC2, BIRC5, KIF11, KIF2C, TOP2A, ASPM, CKS1B, and WEE1; test: Affymetrix gene expression, ten-gene summary, cells treated 24 hours; details: human retinal pigment epithelial cell line; 24 hours vs vehicle; summary in words of Table 1
# Procedure: as §1
smiles,measurement,setting,value
"CC(/C=C/C(=O)NO)=C\[C@@H](C)C(=O)c1ccc(N(C)C)cc1 [trichostatin A, 7-[4-(dimethylamino)phenyl]-N-hydroxy-4,6-dimethyl-7-oxohepta-2,4-dienamide]","Fold Expression Δ, CDC2",CDC2,−11.83 Fold
same,"Fold Expression Δ, TOP2A","TOP2A; probe 201291_s_at, Instance ID 10005533",−28.22 Fold
same,"Fold Expression Δ, TOP2A","TOP2A; probe 201292_at, Instance ID 10005532",−31.95 Fold
same,"effect on expression of CCNB1, AURKB, CDC2, BIRC5, KIF11, KIF2C, TOP2A, ASPM, CKS1B, and WEE1",[1],significant downregulation
